# Tested on: Saccharomyces cerevisiae
# Assay: Antifungal activity against Saccharomyces cerevisiae ATCC9763 assessed as growth inhibition incubated at 35 degC for 24 hrs by micro broth dilution method
# Assay type: functional
# Conditions: ATCC9763, 24 h
row,SMILES,MIC80 [µg/mL]
1,O=C(O)c1cn(C2CC2)c2c(Cl)c(N3CCC(NCC(O)CSc4ncn(Cc5ccc(Cl)c(Cl)c5)n4)C3)c(F)cc2c1=O (centres undefined),16
2,O=C(O)c1cn(C2CC2)c2c(Cl)c(N3CCC(NCC(O)Cn4cnc(S)n4)C3)c(F)cc2c1=O (centres undefined),8
3,CCn1cc(C(=O)O)c(=O)c2cc(F)c(N3CCN(CC4CO4)CC3)cc21 (centres undefined),1

# Tested on: Cyberlindnera jadinii
# Assay: Antifungal activity against Candida utilis ATCC9950 assessed as growth inhibition incubated at 35 degC for 24 hrs by micro broth dilution method
# Assay type: functional
# Conditions: Williopsis jadinii, ATCC9950, 24 h
row,SMILES,MIC80 [µg/mL]
1,O=C(O)c1cn(C2CC2)c2c(Cl)c(N3CCC(NCC(O)CSc4ncn(Cc5ccc(Cl)c(Cl)c5)n4)C3)c(F)cc2c1=O (centres undefined),8
2,O=C(O)c1cn(C2CC2)c2c(Cl)c(N3CCC(NCC(O)Cn4cnc(S)n4)C3)c(F)cc2c1=O (centres undefined),4
3,CCn1cc(C(=O)O)c(=O)c2cc(F)c(N3CCN(CC4CO4)CC3)cc21 (centres undefined),8

# Tested on: Candida albicans
# Assay: Antifungal activity against Candida albicans ATCC10231 assessed as growth inhibition incubated at 35 degC for 24 hrs by micro broth dilution method
# Assay type: functional
# Conditions: ATCC10231, 24 h
row,SMILES,MIC80 [µg/mL]
1,O=C(O)c1cn(C2CC2)c2c(Cl)c(N3CCC(NCC(O)CSc4ncn(Cc5ccc(Cl)c(Cl)c5)n4)C3)c(F)cc2c1=O (centres undefined),0.5
2,O=C(O)c1cn(C2CC2)c2c(Cl)c(N3CCC(NCC(O)Cn4cnc(S)n4)C3)c(F)cc2c1=O (centres undefined),2
3,CCn1cc(C(=O)O)c(=O)c2cc(F)c(N3CCN(CC4CO4)CC3)cc21 (centres undefined),4

# Tested on: not listed separately
# Assay: Antibacterial activity against Eberthella typhosa ATCC14028 assessed as growth inhibition incubated at 37 degC for 24 hrs by micro broth dilution method
# Assay type: functional
# Conditions: ATCC14028, 24 h
row,SMILES,MIC [µg/mL]
1,CCn1cc(C(=O)O)c(=O)c2cc(F)c(N3CCNCC3)cc21 [NORFLOXACIN],1
2,NC1CCN(c2c(F)cc3c(=O)c(C(=O)O)cn(C4CC4)c3c2Cl)C1 (centres undefined) [CLINAFLOXACIN],1
3,O=C(O)c1cn(C2CC2)c2cc(N3CCNCC3)c(F)cc2c1=O [CIPROFLOXACIN],1
4,O=C(O)c1cn(C2CC2)c2c(Cl)c(N3CCC(NCC(O)CSc4ncn(Cc5ccc(Cl)c(Cl)c5)n4)C3)c(F)cc2c1=O (centres undefined),0.5
5,O=C(O)c1cn(C2CC2)c2c(Cl)c(N3CCC(NCC(O)Cn4cnc(S)n4)C3)c(F)cc2c1=O (centres undefined),0.5
6,CCn1cc(C(=O)O)c(=O)c2cc(F)c(N3CCN(CC4CO4)CC3)cc21 (centres undefined),16

# Tested on: not listed separately
# Assay: Antifungal activity against Candida mycoderma ATCC9888 assessed as growth inhibition incubated at 35 degC for 24 hrs by micro broth dilution method
# Assay type: functional
# Conditions: Kregervanrija fluxuum
row,SMILES,MIC80 [µg/mL]
1,O=C(O)c1cn(C2CC2)c2c(Cl)c(N3CCC(NCC(O)CSc4ncn(Cc5ccc(Cl)c(Cl)c5)n4)C3)c(F)cc2c1=O (centres undefined),1
2,O=C(O)c1cn(C2CC2)c2c(Cl)c(N3CCC(NCC(O)Cn4cnc(S)n4)C3)c(F)cc2c1=O (centres undefined),8
3,CCn1cc(C(=O)O)c(=O)c2cc(F)c(N3CCN(CC4CO4)CC3)cc21 (centres undefined),1

# Tested on: Aspergillus flavus
# Assay: Antifungal activity against Aspergillus flavus ATCC204304 assessed as growth inhibition incubated at 35 degC for 24 hrs by micro broth dilution method
# Assay type: functional
# Conditions: ATCC204304, 24 h
row,SMILES,MIC80 [µg/mL]
1,O=C(O)c1cn(C2CC2)c2c(Cl)c(N3CCC(NCC(O)CSc4ncn(Cc5ccc(Cl)c(Cl)c5)n4)C3)c(F)cc2c1=O (centres undefined),8
2,O=C(O)c1cn(C2CC2)c2c(Cl)c(N3CCC(NCC(O)Cn4cnc(S)n4)C3)c(F)cc2c1=O (centres undefined),8
3,CCn1cc(C(=O)O)c(=O)c2cc(F)c(N3CCN(CC4CO4)CC3)cc21 (centres undefined),1

# Tested on: Escherichia coli
# Assay: Antibacterial activity against Escherichia coli JM109 assessed as growth inhibition incubated at 37 degC for 24 hrs by micro broth dilution method
# Assay type: functional
# Conditions: JM109, 24 h
row,SMILES,MIC [µg/mL]
1,CCn1cc(C(=O)O)c(=O)c2cc(F)c(N3CCNCC3)cc21 [NORFLOXACIN],2
2,NC1CCN(c2c(F)cc3c(=O)c(C(=O)O)cn(C4CC4)c3c2Cl)C1 (centres undefined) [CLINAFLOXACIN],1
3,O=C(O)c1cn(C2CC2)c2c(Cl)c(N3CCC(NCC(O)CSc4ncn(Cc5ccc(Cl)c(Cl)c5)n4)C3)c(F)cc2c1=O (centres undefined),1
4,O=C(O)c1cn(C2CC2)c2c(Cl)c(N3CCC(NCC(O)Cn4cnc(S)n4)C3)c(F)cc2c1=O (centres undefined),1
5,CCn1cc(C(=O)O)c(=O)c2cc(F)c(N3CCN(CC4CO4)CC3)cc21 (centres undefined),2

# Tested on: Staphylococcus aureus
# Assay: Antibacterial activity against methicillin resistant Staphylococcus aureus N315 assessed as growth inhibition incubated at 37 degC for 24 hrs by micro broth dilution method
# Assay type: functional
# Conditions: N315, 24 h
row,SMILES,MIC [µg/mL]
1,CCn1cc(C(=O)O)c(=O)c2cc(F)c(N3CCNCC3)cc21 [NORFLOXACIN],2
2,NC1CCN(c2c(F)cc3c(=O)c(C(=O)O)cn(C4CC4)c3c2Cl)C1 (centres undefined) [CLINAFLOXACIN],1
3,O=C(O)c1cn(C2CC2)c2c(Cl)c(N3CCC(NCC(O)CSc4ncn(Cc5ccc(Cl)c(Cl)c5)n4)C3)c(F)cc2c1=O (centres undefined),0.5
4,O=C(O)c1cn(C2CC2)c2c(Cl)c(N3CCC(NCC(O)Cn4cnc(S)n4)C3)c(F)cc2c1=O (centres undefined),4
5,CCn1cc(C(=O)O)c(=O)c2cc(F)c(N3CCN(CC4CO4)CC3)cc21 (centres undefined),2

# Tested on: Staphylococcus aureus
# Assay: Antibacterial activity against Staphylococcus aureus ATCC25923 assessed as growth inhibition incubated at 37 degC for 24 hrs by micro broth dilution method
# Assay type: functional
# Conditions: ATCC25923, 24 h
row,SMILES,MIC [µg/mL]
1,CCn1cc(C(=O)O)c(=O)c2cc(F)c(N3CCNCC3)cc21 [NORFLOXACIN],2
2,NC1CCN(c2c(F)cc3c(=O)c(C(=O)O)cn(C4CC4)c3c2Cl)C1 (centres undefined) [CLINAFLOXACIN],0.5
3,O=C(O)c1cn(C2CC2)c2c(Cl)c(N3CCC(NCC(O)CSc4ncn(Cc5ccc(Cl)c(Cl)c5)n4)C3)c(F)cc2c1=O (centres undefined),0.5
4,O=C(O)c1cn(C2CC2)c2c(Cl)c(N3CCC(NCC(O)Cn4cnc(S)n4)C3)c(F)cc2c1=O (centres undefined),0.5
5,CCn1cc(C(=O)O)c(=O)c2cc(F)c(N3CCN(CC4CO4)CC3)cc21 (centres undefined),8

# Tested on: Micrococcus luteus
# Assay: Antibacterial activity against Micrococcus luteus ATCC4698 assessed as growth inhibition incubated at 37 degC for 24 hrs by micro broth dilution method
# Assay type: functional
# Conditions: ATCC4698, 24 h
row,SMILES,MIC [µg/mL]
1,CCn1cc(C(=O)O)c(=O)c2cc(F)c(N3CCNCC3)cc21 [NORFLOXACIN],2
2,NC1CCN(c2c(F)cc3c(=O)c(C(=O)O)cn(C4CC4)c3c2Cl)C1 (centres undefined) [CLINAFLOXACIN],0.5
3,O=C(O)c1cn(C2CC2)c2c(Cl)c(N3CCC(NCC(O)CSc4ncn(Cc5ccc(Cl)c(Cl)c5)n4)C3)c(F)cc2c1=O (centres undefined),0.5
4,O=C(O)c1cn(C2CC2)c2c(Cl)c(N3CCC(NCC(O)Cn4cnc(S)n4)C3)c(F)cc2c1=O (centres undefined),2
5,CCn1cc(C(=O)O)c(=O)c2cc(F)c(N3CCN(CC4CO4)CC3)cc21 (centres undefined),8

# Tested on: Bacillus subtilis
# Assay: Antibacterial activity against Bacillus subtilis ATCC6633 assessed as growth inhibition incubated at 37 degC for 24 hrs by micro broth dilution method
# Assay type: functional
# Conditions: ATCC6633, 24 h
row,SMILES,MIC [µg/mL]
1,CCn1cc(C(=O)O)c(=O)c2cc(F)c(N3CCNCC3)cc21 [NORFLOXACIN],1
2,NC1CCN(c2c(F)cc3c(=O)c(C(=O)O)cn(C4CC4)c3c2Cl)C1 (centres undefined) [CLINAFLOXACIN],0.5
3,O=C(O)c1cn(C2CC2)c2cc(N3CCNCC3)c(F)cc2c1=O [CIPROFLOXACIN],1
4,O=C(O)c1cn(C2CC2)c2c(Cl)c(N3CCC(NCC(O)CSc4ncn(Cc5ccc(Cl)c(Cl)c5)n4)C3)c(F)cc2c1=O (centres undefined),0.5
5,O=C(O)c1cn(C2CC2)c2c(Cl)c(N3CCC(NCC(O)Cn4cnc(S)n4)C3)c(F)cc2c1=O (centres undefined),0.5
6,CCn1cc(C(=O)O)c(=O)c2cc(F)c(N3CCN(CC4CO4)CC3)cc21 (centres undefined),64

# Tested on: Pseudomonas aeruginosa
# Assay: Antibacterial activity against Pseudomonas aeruginosa ATCC27853 assessed as growth inhibition incubated at 37 degC for 24 hrs by micro broth dilution method
# Assay type: functional
# Conditions: ATCC27853, 24 h
row,SMILES,MIC [µg/mL]
1,CCn1cc(C(=O)O)c(=O)c2cc(F)c(N3CCNCC3)cc21 [NORFLOXACIN],4
2,NC1CCN(c2c(F)cc3c(=O)c(C(=O)O)cn(C4CC4)c3c2Cl)C1 (centres undefined) [CLINAFLOXACIN],1
3,O=C(O)c1cn(C2CC2)c2cc(N3CCNCC3)c(F)cc2c1=O [CIPROFLOXACIN],1
4,O=C(O)c1cn(C2CC2)c2c(Cl)c(N3CCC(NCC(O)CSc4ncn(Cc5ccc(Cl)c(Cl)c5)n4)C3)c(F)cc2c1=O (centres undefined),0.5
5,O=C(O)c1cn(C2CC2)c2c(Cl)c(N3CCC(NCC(O)Cn4cnc(S)n4)C3)c(F)cc2c1=O (centres undefined),4
6,CCn1cc(C(=O)O)c(=O)c2cc(F)c(N3CCN(CC4CO4)CC3)cc21 (centres undefined),16

# Tested on: not listed separately
# Assay: Antibacterial activity against Bacillus proteus ATCC13315 assessed as growth inhibition incubated at 37 degC for 24 hrs by micro broth dilution method
# Assay type: functional
# Conditions: ATCC13315, 24 h
row,SMILES,MIC [µg/mL]
1,CCn1cc(C(=O)O)c(=O)c2cc(F)c(N3CCNCC3)cc21 [NORFLOXACIN],8
2,NC1CCN(c2c(F)cc3c(=O)c(C(=O)O)cn(C4CC4)c3c2Cl)C1 (centres undefined) [CLINAFLOXACIN],0.5
3,O=C(O)c1cn(C2CC2)c2cc(N3CCNCC3)c(F)cc2c1=O [CIPROFLOXACIN],1
4,O=C(O)c1cn(C2CC2)c2c(Cl)c(N3CCC(NCC(O)CSc4ncn(Cc5ccc(Cl)c(Cl)c5)n4)C3)c(F)cc2c1=O (centres undefined),0.5
5,O=C(O)c1cn(C2CC2)c2c(Cl)c(N3CCC(NCC(O)Cn4cnc(S)n4)C3)c(F)cc2c1=O (centres undefined),1
6,CCn1cc(C(=O)O)c(=O)c2cc(F)c(N3CCN(CC4CO4)CC3)cc21 (centres undefined),4

# From ChEMBL document CHEMBL3739277, “Design, synthesis, and antibacterial evaluation of novel azolylthioether quinolones as MRSA DNA intercalators” (2015)
